How the values were obtained:
Experiment in all cases: cells
HO-1-N-1 = type: functional, cell-based, Homo sapiens; details: Homo sapiens, HO-1-N-1;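 note: growth inhibition of human HO-1-N-1 cells, read out with a cell viability assay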
Description: SANGER: Inhibition of human HO-1-N-1 cell growth in a cell viability assay.

BEN = type: functional, cell-based, Homo sapiens; details: Homo sapiens, BEN;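 note: growth inhibition of the BEN cell line, read out with a cell viability assay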
Description: SANGER: Inhibition of human BEN cell growth in a cell viability assay.

MZ7-mel = type: functional, cell-based, Homo sapiens; details: Homo sapiens, MZ7-mel;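 note: growth inhibition of human MZ7-mel cells, measured by a cell viability assay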
Description: SANGER: Inhibition of human MZ7-mel cell growth in a cell viability assay.

T47D = type: functional, cell-based, Homo sapiens; details: Homo sapiens, T47D;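 note: growth inhibition of human T47D cells, measured with a cell viability assay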
Description: SANGER: Inhibition of human T47D cell growth in a cell viability assay.

AU565 = type: functional, cell-based, Homo sapiens; details: Homo sapiens, AU565;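 note: cell viability assay measuring growth inhibition of human AU565 cells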
Description: SANGER: Inhibition of human AU565 cell growth in a cell viability assay.

LS-411N = type: functional, cell-based, Homo sapiens; details: Homo sapiens, LS-411N
HCC2218 = type: functional, cell-based; details: Homo sapiens;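 note: cell viability assay read-out, with IC50 given as the concentration that inhibits growth of the cell line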
Description: SANGER: Inhibition of human HCC2218 cell growth in a cell viability assay.

KYSE-510 = type: functional, cell-based, Homo sapiens; details: Homo sapiens, KYSE-510;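 note: cell viability readout used to measure how strongly growth of the cell line is suppressed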
Description: SANGER: Inhibition of human KYSE-510 cell growth in a cell viability assay.

MLMA = type: functional, cell-based, Homo sapiens; details: Homo sapiens, MLMA;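 note: growth inhibition of MLMA cells (human), determined through a cell viability readout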
Description: SANGER: Inhibition of human MLMA cell growth in a cell viability assay.

SK-NEP-1 = type: functional, cell-based; details: Homo sapiens;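 note: growth inhibition of human SK-NEP-1 cells, read out by a cell viability assay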
Description: SANGER: Inhibition of human SK-NEP-1 cell growth in a cell viability assay.

LXF-289 cell line = type: functional, cell-based, Homo sapiens; details: Homo sapiens, LXF-289
Description: SANGER: Inhibition of human LXF-289 cell growth in a cell viability assay.

DOHH-2 = type: functional, cell-based; details: Homo sapiens;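 note: growth inhibition of human DOHH-2 cells, read out with a cell viability assay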
Description: SANGER: Inhibition of human DOHH-2 cell growth in a cell viability assay.

C8166 = type: functional, cell-based; details: Homo sapiens;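 note: growth inhibition of human C8166 cells measured by a cell viability assay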
Description: SANGER: Inhibition of human C8166 cell growth in a cell viability assay.

Mo = type: functional, cell-based; details: Homo sapiens
Description: SANGER: Inhibition of human Mo-T cell growth in a cell viability assay.

BPH-1 = type: functional, cell-based, Homo sapiens; details: Homo sapiens, BPH-1;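 note: cell viability assay measuring growth inhibition of human BPH-1 cells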
Description: SANGER: Inhibition of human BPH-1 cell growth in a cell viability assay.

NCI-H1395 = type: functional, cell-based, Homo sapiens; details: Homo sapiens, NCI-H1395;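 note: cell viability assay read-out quantifying reduced proliferation of human NCI-H1395 cells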
Description: SANGER: Inhibition of human NCI-H1395 cell growth in a cell viability assay.

OE19 = type: functional, cell-based, Homo sapiens; details: Homo sapiens, OE19;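 note: growth inhibition of OE19 cells, measured through a cell viability read-out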
Description: SANGER: Inhibition of human OE19 cell growth in a cell viability assay.

BB49-HNC = type: functional, cell-based, Homo sapiens; details: Homo sapiens, BB49-HNC;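 note: cell viability assay read-out, reported as inhibition of BB49-HNC cell growth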
Description: SANGER: Inhibition of human BB49-HNC cell growth in a cell viability assay.

BFTC-909 = type: functional, cell-based, Homo sapiens; details: Homo sapiens, BFTC-909
Description: SANGER: Inhibition of human BFTC-909 cell growth in a cell viability assay.

IST-SL1 = type: functional, cell-based, Homo sapiens; details: Homo sapiens, IST-SL1;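 note: growth inhibition of human IST-SL1 cells, read out with a cell viability assay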
Description: SANGER: Inhibition of human IST-SL1 cell growth in a cell viability assay.

Ca-Ski = type: functional, cell-based; details: Homo sapiens;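 note: cell viability assay measuring inhibition of Ca-Ski cell growth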
Description: SANGER: Inhibition of human Ca-Ski cell growth in a cell viability assay.

HD-MY-Z = type: functional, cell-based, Homo sapiens; details: Homo sapiens, HD-MY-Z;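 note: growth inhibition of HD-MY-Z cells, read out with a cell viability assay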
Description: SANGER: Inhibition of human HD-MY-Z cell growth in a cell viability assay.

NCI-H1651 = type: functional, cell-based, Homo sapiens; details: Homo sapiens, NCI-H1651;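 note: Read-out is a cell viability assay, with IC50 expressing inhibition of NCI-H1651 cell growth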
Description: SANGER: Inhibition of human NCI-H1651 cell growth in a cell viability assay.

PC-3 = type: functional, cell-based, Homo sapiens; details: Homo sapiens, PC-3;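 note: cell viability assay measuring growth inhibition of PC-3 cells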
Description: SANGER: Inhibition of human PC-3 cell growth in a cell viability assay.

NCI-H2126 = type: functional, cell-based, Homo sapiens; details: Homo sapiens, NCI-H2126;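 note: growth inhibition of the cancer cell line, determined with a cell viability readout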
Description: SANGER: Inhibition of human NCI-H2126 cell growth in a cell viability assay.

KINGS-1 = type: functional, cell-based, Homo sapiens; details: Homo sapiens, KINGS-1;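 note: cell viability assay measuring suppression of KINGS-1 cell growth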
Description: SANGER: Inhibition of human KINGS-1 cell growth in a cell viability assay.

JAR = type: functional, cell-based, Homo sapiens; details: Homo sapiens, JAR;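 note: growth inhibition of human JAR cells determined with a cell viability assay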
Description: SANGER: Inhibition of human JAR cell growth in a cell viability assay.

HCC1569 = type: functional, cell-based, Homo sapiens; details: Homo sapiens, HCC1569;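 note: growth inhibition of human HCC1569 cells, read out with a cell viability assay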
Description: SANGER: Inhibition of human HCC1569 cell growth in a cell viability assay.

Capan-2 = type: functional, cell-based, Homo sapiens; details: Homo sapiens, Capan-2;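 note: Capan-2 cell growth inhibition, read out with a viability assay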
Description: SANGER: Inhibition of human Capan-2 cell growth in a cell viability assay.

NCI-H661 = type: functional, cell-based, Homo sapiens; details: Homo sapiens, NCI-H661;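 note: cell viability assay read-out, IC50 being the concentration that inhibits growth of the cells by half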
Description: SANGER: Inhibition of human NCI-H661 cell growth in a cell viability assay.

KALS-1 = type: functional, cell-based, Homo sapiens; details: Homo sapiens, KALS-1;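 note: growth inhibition of KALS-1 cells, determined with a cell viability assay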
Description: SANGER: Inhibition of human KALS-1 cell growth in a cell viability assay.

HOP-62 = type: functional, cell-based, Homo sapiens; details: Homo sapiens, HOP-62;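 note: cell growth inhibition determined with a viability assay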
Description: SANGER: Inhibition of human HOP-62 cell growth in a cell viability assay.

A-427 = type: functional, cell-based, Homo sapiens; details: Homo sapiens, A-427;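 note: growth inhibition of human A-427 cells, read out by a cell viability assay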
Description: SANGER: Inhibition of human A427 cell growth in a cell viability assay.

SW1088 = type: functional, cell-based, Homo sapiens; details: Homo sapiens, SW1088;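 note: growth inhibition of human SW1088 cells, read out by a cell viability assay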
Description: SANGER: Inhibition of human SW1088 cell growth in a cell viability assay.

SK-MEL3 = type: functional, cell-based, Homo sapiens, SK-MEL-3; details: Homo sapiens, SK-MEL3;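 note: growth inhibition of human SK-MEL-3 cells, read out with a cell viability assay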
Description: SANGER: Inhibition of human SK-MEL-3 cell growth in a cell viability assay.

KS-1 = type: functional, cell-based, Homo sapiens; details: Homo sapiens, KS-1;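 note: growth inhibition of KS-1 cells, read out with a cell viability assay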
Description: SANGER: Inhibition of human KS-1 cell growth in a cell viability assay.

NCI-H1623 = type: functional, cell-based, Homo sapiens; details: Homo sapiens, NCI-H1623;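 note: cell viability assay used as the read-out for growth inhibition of NCI-H1623 cells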
Description: SANGER: Inhibition of human NCI-H1623 cell growth in a cell viability assay.

HT-1080 = type: functional, cell-based, Homo sapiens; details: Homo sapiens, HT-1080
Description: SANGER: Inhibition of human HT-1080 cell growth in a cell viability assay.

COLO-792 = type: functional, cell-based, Homo sapiens; details: Homo sapiens, COLO-792
Description: SANGER: Inhibition of human COLO-792 cell growth in a cell viability assay.

YKG-1 = type: functional, cell-based, Homo sapiens; details: Homo sapiens, YKG-1;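 note: cell growth inhibition, read out with a viability assay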
Description: SANGER: Inhibition of human YKG-1 cell growth in a cell viability assay.

IGROV-1 = type: functional, cell-based, Homo sapiens; details: Homo sapiens, IGROV-1;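 note: reduction of IGROV-1 cell growth, read out with a viability assay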
Description: SANGER: Inhibition of human IGROV-1 cell growth in a cell viability assay.

LB2518-MEL = type: functional, cell-based, Homo sapiens; details: Homo sapiens, LB2518-MEL;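 note: growth inhibition of human LB2518-MEL cells, measured with a cell viability assay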
Description: SANGER: Inhibition of human LB2518-MEL cell growth in a cell viability assay.

T-24 = type: functional, cell-based, Homo sapiens; details: Homo sapiens, T-24;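 note: growth inhibition of T-24 cells, read out with a cell viability assay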
Description: SANGER: Inhibition of human T-24 cell growth in a cell viability assay.

Detroit 562 = type: functional, cell-based, Homo sapiens; details: Homo sapiens, Detroit 562;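 note: growth inhibition of human Detroit 562 cells, read out by a cell viability assay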
Description: SANGER: Inhibition of human Detroit562 cell growth in a cell viability assay.

Calu-6 = type: functional, cell-based, Homo sapiens; details: Homo sapiens, Calu-6;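 note: growth of human Calu-6 cells, read out by a cell viability assay, IC50 marking inhibition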
Description: SANGER: Inhibition of human Calu-6 cell growth in a cell viability assay.

CP50-MEL-B = type: functional, cell-based, Homo sapiens; details: Homo sapiens, CP50-MEL-B;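 note: growth inhibition of the human cell line, measured with a cell viability read-out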
Description: SANGER: Inhibition of human CP50-MEL-B cell growth in a cell viability assay.

CW-2 = type: functional, cell-based, Homo sapiens; details: Homo sapiens, CW-2;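 note: growth inhibition of CW-2 cells, read out by a cell viability assay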
Description: SANGER: Inhibition of human CW-2 cell growth in a cell viability assay.

SNU-5 = type: functional, cell-based; details: Homo sapiens;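 note: cell viability readout used to measure growth inhibition in human NCI-SNU-5 cells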
Description: SANGER: Inhibition of human NCI-SNU-5 cell growth in a cell viability assay.

RCM-1 = type: functional, cell-based, Homo sapiens; details: Homo sapiens, RCM-1;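 note: growth inhibition of the RCM-1 line, determined with a cell viability readout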
Description: SANGER: Inhibition of human RCM-1 cell growth in a cell viability assay.

HCC 2998 = type: functional, cell-based, Homo sapiens; details: Homo sapiens, HCC 2998;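 note: growth inhibition of human HCC2998 cells, measured with a cell viability read-out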
Description: SANGER: Inhibition of human HCC2998 cell growth in a cell viability assay.

EW-24 = type: functional, cell-based; details: Homo sapiens;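 note: human EW-24 cancer cell line, growth inhibition read out via a cell viability assay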
Description: SANGER: Inhibition of human EW-24 cell growth in a cell viability assay.

Molecule C=CCNC1=C2C[C@@H](C)C[C@H](OC)[C@H](O)[C@@H](C)/C=C(\C)[C@H](OC(N)=O)[C@@H](OC)/C=C\C=C(/C)C(=O)NC(=CC1=O)C2=O [TANESPIMYCIN] has an IC50 (HO-1-N-1) of 0.0402 µM, an IC50 (BEN) greater than 1 µM and an IC50 (MZ7-mel) of 0.176 µM. For the same molecule, the IC50 (T47D) was greater than 1 µM, the IC50 (AU565) was greater than 1 µM and the IC50 (LS-411N) was 0.465 µM. For the same molecule, the IC50 (HCC2218) was 0.0249 µM, the IC50 (KYSE-510) was 0.0465 µM and the IC50 (MLMA) was greater than 1 µM. The IC50 (SK-NEP-1) was greater than 1 µM, the IC50 (LXF-289 cell line) was 0.00419 µM and the IC50 (DOHH-2) was greater than 1 µM. For the same molecule, the IC50 (C8166) was greater than 1 µM, the IC50 (Mo) was greater than 1 µM and the IC50 (BPH-1) was 0.134 µM. For the same molecule, the IC50 (NCI-H1395) was 0.187 µM, the IC50 (OE19) was 0.0308 µM and the IC50 (BB49-HNC) was 0.0424 µM. The IC50 (BFTC-909) was 0.0797 µM, the IC50 (IST-SL1) was greater than 1 µM and the IC50 (Ca-Ski) was 0.267 µM. It also gave an IC50 (HD-MY-Z) of 0.109 µM, an IC50 (NCI-H1651) of 0.7 µM and an IC50 (PC-3) of 0.515 µM. For the same molecule, the IC50 (NCI-H2126) was 0.568 µM, the IC50 (KINGS-1) was 0.245 µM and the IC50 (JAR) was greater than 1 µM. For the same molecule, the IC50 (HCC1569) was greater than 1 µM, the IC50 (Capan-2) was 0.193 µM and the IC50 (NCI-H661) was 0.611 µM. For the same molecule, the IC50 (KALS-1) was 0.114 µM, the IC50 (HOP-62) was 0.499 µM and the IC50 (A-427) was 0.42 µM. It also gave an IC50 (SW1088) of 0.164 µM, an IC50 (SK-MEL3) of 0.815 µM and an IC50 (KS-1) of 0.0136 µM. The IC50 (NCI-H1623) was greater than 1 µM, the IC50 (HT-1080) was 0.0844 µM and the IC50 (COLO-792) was 0.313 µM. For the same molecule, the IC50 (YKG-1) was 0.0507 µM, the IC50 (IGROV-1) was 0.184 µM and the IC50 (LB2518-MEL) was 0.258 µM. For the same molecule, the IC50 (T-24) was 0.332 µM, the IC50 (Detroit 562) was 0.0424 µM and the IC50 (Calu-6) was greater than 1 µM. For the same molecule, the IC50 (CP50-MEL-B) was 0.0345 µM, the IC50 (CW-2) was greater than 1 µM and the IC50 (SNU-5) was 0.305 µM. For the same molecule, the IC50 (RCM-1) was greater than 1 µM and the IC50 (HCC 2998) was 0.0735 µM.
Work on CC(=O)O[C@@H]1[C@@H](OC(C)=O)[C@@H](O)[C@H](Oc2c(-c3ccc(O)cc3)oc3cc(O)cc(O)c3c2=O)O[C@H]1C yielded an IC50 (HO-1-N-1) greater than 10 µM, an IC50 (BEN) greater than 10 µM and an IC50 (MZ7-mel) greater than 10 µM. The IC50 (T47D) was greater than 10 µM, the IC50 (AU565) was greater than 10 µM and the IC50 (LS-411N) was greater than 10 µM. It also gave an IC50 (HCC2218) of 3.84 µM, an IC50 (KYSE-510) greater than 10 µM and an IC50 (MLMA) greater than 10 µM. It also gave an IC50 (SK-NEP-1) greater than 10 µM, an IC50 (LXF-289 cell line) greater than 10 µM and an IC50 (DOHH-2) greater than 10 µM. It also gave an IC50 (C8166) greater than 10 µM, an IC50 (Mo) greater than 10 µM and an IC50 (BPH-1) greater than 10 µM. The IC50 (NCI-H1395) was greater than 10 µM, the IC50 (OE19) was greater than 10 µM and the IC50 (BB49-HNC) was greater than 10 µM. It also gave an IC50 (BFTC-909) greater than 10 µM, an IC50 (IST-SL1) greater than 10 µM and an IC50 (Ca-Ski) greater than 10 µM. The IC50 (HD-MY-Z) was greater than 10 µM, the IC50 (NCI-H1651) was greater than 10 µM and the IC50 (PC-3) was greater than 10 µM. For the same molecule, the IC50 (NCI-H2126) was greater than 10 µM, the IC50 (KINGS-1) was greater than 10 µM and the IC50 (JAR) was greater than 10 µM. For the same molecule, the IC50 (HCC1569) was greater than 10 µM, the IC50 (Capan-2) was greater than 10 µM and the IC50 (NCI-H661) was greater than 10 µM. For the same molecule, the IC50 (KALS-1) was greater than 10 µM, the IC50 (HOP-62) was greater than 10 µM and the IC50 (A-427) was greater than 10 µM. For the same molecule, the IC50 (SW1088) was greater than 10 µM, the IC50 (SK-MEL3) was 7.74 µM and the IC50 (KS-1) was greater than 10 µM. It also gave an IC50 (NCI-H1623) greater than 10 µM, an IC50 (HT-1080) greater than 10 µM and an IC50 (COLO-792) greater than 10 µM. The IC50 (YKG-1) was greater than 10 µM, the IC50 (IGROV-1) was greater than 10 µM and the IC50 (LB2518-MEL) was greater than 10 µM. The IC50 (T-24) was greater than 10 µM, the IC50 (Detroit 562) was greater than 10 µM and the IC50 (Calu-6) was greater than 10 µM. The IC50 (CP50-MEL-B) was greater than 10 µM, the IC50 (CW-2) was greater than 10 µM and the IC50 (SNU-5) was greater than 10 µM. It also gave an IC50 (RCM-1) greater than 10 µM and an IC50 (HCC 2998) greater than 10 µM.
Cn1cc(C2=C(c3ccc(Cl)cc3Cl)C(=O)NC2=O)c2ccccc21 [SB-216763] gave an IC50 (HO-1-N-1) greater than 10 µM, an IC50 (BEN) greater than 10 µM and an IC50 (MZ7-mel) greater than 10 µM. The IC50 (T47D) was greater than 10 µM, the IC50 (AU565) was greater than 10 µM and the IC50 (LS-411N) was greater than 10 µM. The IC50 (KYSE-510) was greater than 10 µM, the IC50 (MLMA) was greater than 10 µM and the IC50 (SK-NEP-1) was greater than 10 µM. It also gave an IC50 (LXF-289 cell line) greater than 10 µM, an IC50 (EW-24) greater than 10 µM and an IC50 (DOHH-2) greater than 10 µM. For the same molecule, the IC50 (C8166) was greater than 10 µM, the IC50 (Mo) was greater than 10 µM and the IC50 (BPH-1) was greater than 10 µM. The IC50 (NCI-H1395) was greater than 10 µM, the IC50 (OE19) was greater than 10 µM and the IC50 (BB49-HNC) was greater than 10 µM. The IC50 (BFTC-909) was greater than 10 µM, the IC50 (IST-SL1) was 9.02 µM and the IC50 (Ca-Ski) was greater than 10 µM. The IC50 (HD-MY-Z) was greater than 10 µM, the IC50 (NCI-H1651) was greater than 10 µM and the IC50 (PC-3) was greater than 10 µM. For the same molecule, the IC50 (NCI-H2126) was greater than 10 µM, the IC50 (KINGS-1) was greater than 10 µM and the IC50 (JAR) was 1.21 µM. It also gave an IC50 (HCC1569) greater than 10 µM, an IC50 (Capan-2) greater than 10 µM and an IC50 (NCI-H661) greater than 10 µM. It also gave an IC50 (KALS-1) greater than 10 µM, an IC50 (HOP-62) of 0.853 µM and an IC50 (A-427) greater than 10 µM. The IC50 (SW1088) was greater than 10 µM, the IC50 (SK-MEL3) was greater than 10 µM and the IC50 (KS-1) was greater than 10 µM. It also gave an IC50 (NCI-H1623) greater than 10 µM, an IC50 (HT-1080) greater than 10 µM and an IC50 (COLO-792) greater than 10 µM. It also gave an IC50 (YKG-1) greater than 10 µM, an IC50 (IGROV-1) greater than 10 µM and an IC50 (LB2518-MEL) greater than 10 µM. It also gave an IC50 (T-24) greater than 10 µM, an IC50 (Detroit 562) greater than 10 µM and an IC50 (Calu-6) greater than 10 µM. For the same molecule, the IC50 (CP50-MEL-B) was greater than 10 µM, the IC50 (CW-2) was greater than 10 µM and the IC50 (SNU-5) was greater than 10 µM. For the same molecule, the IC50 (RCM-1) was greater than 10 µM and the IC50 (HCC 2998) was greater than 10 µM.
